Measured values published in US11680086B2, “Lipopeptide for potently inhibiting HIV, derivative thereof, pharmaceutical composition thereof and use thereof” (Institute of Pathogen Biology, Chinese Academy of Medical …, priority 2017, dated 2023).
Peptide text beside a SMILES is read from it. * marks the point of attachment. Palmitoyl = CCCCCCCCCCCCCCCC(=O)*

Assays:
[1] = tested on: HXB2-mediated cell fusion (HL2/3 effector cells, TZM-b1 target cells); type: cell-based, HIV-1; details: HXB2-mediated cell fusion
Experimental: HIV-1 mediated cell fusion inhibition assay: the effector cells (HL2/3 cells) and target cells (TZM-b1 cells) were provided by the AIDS Reagent Program of National Institutes of Health (NIH) (catalog numbers: 1294 and 8129, respectively). The both cells were adherent cells and were cultured in a DMEM cell culture medium containing ampicillin/streptomycin double antibiotics and 10% fetal bovine serum (FBS). The TZM-b1 was first added to a 96-well cell culture plate (1×10^4 cells/well), and cultured overnight at 37° C. and 5% CO2. The test substance was diluted with the DMEM cell culture medium by 3 folds and mixed with HL2/3 effector cells (3×10^4 cells/well), then added to the TZM-b1 target cells, and further cultured for 6 hours to fully fuse. The activity of luciferase (relative fluorescence units, RLU) was then determined using a luciferase reporter gene kit from Promega company according to the instructions. The inhibition rate of each sample at each concentration was calculated, and the half effective inhibitory concentration (IC50 value) was calculated using GraphPad Prism Software 2.01.

[2] = tested on: HIV-1 strain NL4-3 pseudovirus (D36G mutant); type: cell-based
Experimental: The supernatant was discarded from the wells. […] Inhibition rate (%) and IC50 value were calculated.

HIV-1 strain JRCSF = type: cell-based
Experimental: (§1) Inhibition rate (%) and IC50 value were calculated.

[3] = tested on: HIV-2 strain ROD (infectious); assay: inhibition of HIV-2; type: cell-based; details: HIV-2 ROD
Experimental: as §1
In order to further reflect the antiviral advantages of the potent lipopeptides of the present invention, their inhibitory activity against HIV-2 and SIV was determined in the example. The methods of antiviral activity assays used were described in the literatures published by the present inventors (see the References 13 and 30 listed in the Background Art). The molecular cloning plasmid pROD of the HIV-2 strain ROD (HIV-2ROD) was kindly provided by Professor Nuno Taveira from the University of Lisbon, Portugal, and the plasmids expressing the SIV strain SIVpbj (SIVPBJ) and SIV239 envelope proteins (pSIVpbj-Env and pSIV239, respectively) were kindly provided by Professor Xu Jianqing from the Fudan University. The preparation of the infectious ROD was the same as that of the infectious JRCSF in the above section 2.1, and the pseudoviruses SIVpbj and SIV239 were prepared by a method same as that described in the above Examples 2 and 3.

[4] = tested on: HIV-1 strain NL4-3 (NL4-3D36G); assay: antiviral activity in serum of macaque after subcutaneous injection; type: in vivo, macaques (rhesus monkeys); details: 3 mg/kg subcutaneous
Experimental: The specific method was as follows: 6 experimental macaques (rhesus monkeys) were selected, half male and half female, aged 3-4 years old, weighing 3.4-4.7 kg. […] The serum was separated according to a conventional method. The injection interval of each inhibitor was more than 2 weeks to ensure that there was no residue of the previous analyte. The serum activity against the HIV-1 strain NL4-3 (NL4-3D36G) was measured according to the experimental method of the pseudovirus-based assay in the above examples. The serum was diluted by 3 folds. […] Therefore, the lipopeptides of the present invention were not only potent but also were long-lasting effective.

## CCCCCCCCCCCCCCCC(=O)NCCCC[C@H](NC(=O)[C@H](CCC(=O)O)NC(=O)[C@H](CC(C)C)NC(=O)[C@H](CCCCN)NC(=O)[C@H](CCCCN)NC(=O)[C@H](CC(C)C)NC(=O)[C@H](CCC(=O)O)NC(=O)[C@H](CCC(=O)O)NC(=O)[C@H](CCC(=O)O)NC(=O)[C@H](CC(N)=O)NC(=O)[C@H](CCCCN)NC(=O)[C@H](CCCCN)NC(=O)[C@H](CCC(N)=O)NC(=O)[C@H](CCC(N)=O)NC(=O)[C@H](CCC(=O)O)NC(=O)[C@H](CCC(=O)O)NC(=O)[C@H](C)NC(=O)[C@H](CCCCN)NC(=O)[C@H](CCCCN)NC(=O)[C@H](CC(C)C)NC(=O)[C@H](CC(C)C)NC(=O)[C@H](CCC(=O)O)NC(=O)[C@H](CCC(=O)O)NC(=O)[C@@H](NC(=O)[C@H](CCCCN)NC(=O)[C@H](CCC(N)=O)NC(=O)[C@H](CCC(=O)O)NC(=O)[C@H](Cc1c[nH]c2ccccc12)NC(C)=O)[C@@H](C)CC)C(N)=O [LP-52] (Ac-WEQKIEELLKKAEEQQKKNEEELKKLEK(Palmitoyl)-NH2)
[1]; relative to LP-50
  inhibitory activity further improved, folds: about 2 folds
[1]; relative to T-20
  inhibitory activity as folds of that of T-20: 1859 folds
[2]; NL4-3 pseudovirus entry, relative to T-20
  inhibitory activity as folds of that of T-20: 2353 folds
[2]; NL4-3 pseudovirus, relative to LP-50
  inhibitory activity further improved, folds: about 2 folds
HIV-1 strain JRCSF; JRCSF replication, relative to T-20
  inhibitory activity as folds of that of T-20: 1038 folds
HIV-1 strain JRCSF; replicative JRCSF virus, relative to LP-50
  inhibitory activity further improved, folds: ~5 folds
[3]
  inhibitory activity against HIV-2 (in words): extremely potent inhibitory activity
[4]; 4 hour after injection
  maximum serum dilution multiple for inhibiting 50% of NL4-3 infectivity: 700802 folds
[4]; 6 hour after injection
  maximum serum dilution multiple for inhibiting 50% of NL4-3 infectivity: 669112 folds
[4]; 72 hours (3 days) after injection
  maximum serum dilution multiple for inhibiting 50% of NL4-3 infectivity: 182 folds
